Here are results for eleven molecules from US11332485B2, “Penicillin-binding protein inhibitors” (priority 2017, dated 2022).

Assay [1] concerns the target T1, PBP3 from Escherichia coli (Escherichia coli, UniProt P0AD68).
T1 construct: made in house
Description: Fluorescence polarization competition binding assay with Bocillin-FL. From the text: To determine the ability of boronic acid-based test PBP inhibitors to bind Penicillin Binding Proteins (PBPs), Bocillin-FL (fluorescently-labeled penicillin V; ThermoFisher Scientific) was used in a fluorescence polarization (FP) competition binding assay to assess boronic acid PBP inhibitor binding to PBP3 from Escherichia coli. PBP3 from Escherichia coli was cloned and purified as described previously (King, D. T, et al., ACS Infectious Diseases 2015, 1, 175-184). To establish assay conditions for competition binding, an enzyme titration/saturation binding experiment was performed. Bocillin-FL was prepared at […] in a buffer comprised of 50 mM Hepes (pH 8.0), 300 mM NaCl and 5% (v/v) glycerol. Saturation binding was performed by mixing […] of PBP3 ranging in concentrations from […] with 40 μl of the 0.2 μM Bocillin-FL solution, in individual wells of a black 384-well microplate. FP was measured immediately upon addition of PBP3 (Ex, Em), using a Cytation3 (BioTek) microplate reader and measured continuously for 60 minutes. […] The competition binding assay was validated using the beta-lactam ampicillin, with Bocillin-FL at a final concentration of 0.1 μM, PBP3 at a final concentration of 1.5 μM and concentrations of ampicillin from 0-1000 μM. PBP3 was incubated with ampicillin at different concentrations in a black 384-well microplate (Corning) for 30 minutes, then Bocillin-FL added and the FP immediately measured for 60 minutes. […] Binding assays for boronic acid PBP inhibitors were performed in an identical fashion. Representative results are shown in Table 3, where A represents a potency of >500 μM, B represents a potency between 30 μM and 500 μM inclusive, and C represents a potency of <30 μM. NT=Not Tested.

Assay [2] deals with T2, PBP1a from Escherichia coli (Escherichia coli, UniProt P02918).
T2 construct: made in house
T2 sequence (P02918 whole entry): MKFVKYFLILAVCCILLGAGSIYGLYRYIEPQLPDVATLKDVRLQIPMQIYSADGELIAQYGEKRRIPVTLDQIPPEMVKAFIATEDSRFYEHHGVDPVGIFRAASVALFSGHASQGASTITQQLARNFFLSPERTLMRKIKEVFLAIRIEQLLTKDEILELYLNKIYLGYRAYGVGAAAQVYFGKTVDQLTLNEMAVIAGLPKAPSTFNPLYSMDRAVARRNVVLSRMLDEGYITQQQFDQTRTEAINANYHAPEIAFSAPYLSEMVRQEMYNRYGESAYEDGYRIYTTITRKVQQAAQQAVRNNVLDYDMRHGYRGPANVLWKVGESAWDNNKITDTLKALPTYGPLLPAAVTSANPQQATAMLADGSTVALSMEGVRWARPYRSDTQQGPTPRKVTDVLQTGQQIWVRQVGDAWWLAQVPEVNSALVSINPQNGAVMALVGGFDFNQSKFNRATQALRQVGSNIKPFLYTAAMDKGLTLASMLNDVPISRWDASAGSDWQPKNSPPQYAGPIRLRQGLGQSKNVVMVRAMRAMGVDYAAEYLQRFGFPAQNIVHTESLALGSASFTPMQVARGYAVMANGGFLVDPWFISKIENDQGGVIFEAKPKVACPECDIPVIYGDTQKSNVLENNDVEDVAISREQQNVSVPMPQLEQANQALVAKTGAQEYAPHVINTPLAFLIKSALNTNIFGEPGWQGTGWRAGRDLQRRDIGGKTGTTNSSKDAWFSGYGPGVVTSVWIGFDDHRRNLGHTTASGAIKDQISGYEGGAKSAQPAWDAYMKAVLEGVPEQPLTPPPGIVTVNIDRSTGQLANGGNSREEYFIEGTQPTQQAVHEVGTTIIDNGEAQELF
Description: Radioligand competition binding assay with 14C-labeled boronic acid probe (Example 96). As to conditions: 14C-labeled probe 96 at 20 μM, PBP 0.1 μM; read-out: E. coli K12 PBP1a EC50. An excerpt:
To determine the ability of boronic acid-based test PBP inhibitors to bind Penicillin Binding Proteins (PBPs), a radio-labelled boronic acid PBP inhibitor (Example 96) was used in competition binding assays to determine boronic acid PBP inhibitor binding to PBP1a or PBP1b from Escherichia coli. PBP1a and PBP1b were purified as described previously (Bertsche, U.; et al., J. Biol. Chem. 2005, 280 (45), 38096-38101; Born, P.; et al., J Biol. Chem. 2006. 281 (37), 26985-26993). To establish assay conditions for competition binding, an enzyme titration/saturation binding experiment was performed. Saturation binding was performed in a buffer comprised of 20 mM Tris (pH 7.5), 500 mM NaCl and 0.1% (v/v) TritonX-100, with PBP1a/PBP1b at a final concentration of 0.1 μM and 96 at final concentrations ranging from 0-100 μM. Mixtures were incubated for 60 minutes, then applied to Zeba Spin Desalting columns or plates (ThermoFisher Scientific) and centrifuged at 1000-1500×g for 2 minutes. The flow through, containing PBP bound with 96, was recovered and 100 μL mixed with 5 mL of UltimaGold liquid scintillation cocktail (Perkin Elmer), and the radioactivity counted using a Beckman Coulter LS 6500 Multipurpose scintillation counter. PBP binding of 96 approached saturation at 20 μM of ^14C-labeled probe. The competition binding assay was validated using the beta-lactam ampicillin, with 96 at a final concentration of 20 μM, PBP1a/PBP1b at a final concentration of 0.1 μM. PBP1a/PBP1b was incubated with ampicillin in a 96-well microplate for 60 minutes, then 96 was added and the mixtures incubated for an additional 60 minutes. The mixtures were then applied to Zeba Spin desalting plates and centrifuged at 1000×g for 2 minutes. The flow through was recovered and 100 μl mixed with 5 ml of UltimaGold liquid scintillation cocktail and the radioactivity counted. Ampicillin inhibited binding of 96 with an EC50 (the concentration of inhibitor required to reduce binding of 96 by 50%) of less than 0.5 μM. Binding assays with boronic acid PBP inhibitors were performed in an identical fashion. The potency of boronic acid PBP inhibitors was reported as the EC50 value.
Representative results are shown in Table 5, where A represents a potency of >100 μM, B represents a potency between 10 μM and 100 μM inclusive, and C represents a potency of <10 μM. NT=Not Tested.

The test system of the next assay is S. aureus ATCC 29213. Description: Broth microdilution MIC assay. The assay is classed as cell-based. The following applies: Staphylococcus aureus, ATCC29213; broth microdilution, 16-20 hours at 37° C.; read-out: S. aureus 29213 MIC. In a few lines:
(§1)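 Following CLSI procedures, compounds were serially diluted 2-fold and challenged with bacteria at 5×10^5 CFU/mL in Mueller-Hinton broth supplemented with divalent cations. After 16-20 hours at 37° C, the lowest concentration without visible growth was recorded as the MIC.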

The test system of assay [3] is hyper-permeable E. coli 901C. Briefly: Broth microdilution MIC assay. As to conditions: Escherichia coli, read-out: E. coli 901C MIC. The assay is classed as cell-based. In outline:
as §1

In another assay the test system is E. coli DH5α/pLBII. Description: Broth microdilution MIC assay, empty vector control strain. The assay is classed as cell-based. As to conditions: Escherichia coli, read-out: E. coli DH5α/pLBII Microbiological Activity (MIC). In outline:
(§2)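 CLSI broth microdilution in cation-supplemented Mueller-Hinton broth, 2-fold compound dilutions, 5×10^5 CFU/mL inoculum, 16-20 h at 37° C, MIC read visually as lowest concentration without growth. E. coli DH5α carries CTX-M15 on pLBII under Lac promoter, or empty pLBII as control.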

Assay [4] relates to E. coli DH5α/pLBII-CTX-M15. Briefly: Broth microdilution MIC assay, engineered strain producing CTX-M15. The assay is classed as cell-based, Escherichia coli. As to conditions: Escherichia coli, read-out: E. coli DH5α/pLBII-CTX-M15 Microbiological Activity (MIC). In a few lines:
as §2

A value given as a limit tells only on which side of the number the result lay.

T1 sequence (P0AD68 1-577): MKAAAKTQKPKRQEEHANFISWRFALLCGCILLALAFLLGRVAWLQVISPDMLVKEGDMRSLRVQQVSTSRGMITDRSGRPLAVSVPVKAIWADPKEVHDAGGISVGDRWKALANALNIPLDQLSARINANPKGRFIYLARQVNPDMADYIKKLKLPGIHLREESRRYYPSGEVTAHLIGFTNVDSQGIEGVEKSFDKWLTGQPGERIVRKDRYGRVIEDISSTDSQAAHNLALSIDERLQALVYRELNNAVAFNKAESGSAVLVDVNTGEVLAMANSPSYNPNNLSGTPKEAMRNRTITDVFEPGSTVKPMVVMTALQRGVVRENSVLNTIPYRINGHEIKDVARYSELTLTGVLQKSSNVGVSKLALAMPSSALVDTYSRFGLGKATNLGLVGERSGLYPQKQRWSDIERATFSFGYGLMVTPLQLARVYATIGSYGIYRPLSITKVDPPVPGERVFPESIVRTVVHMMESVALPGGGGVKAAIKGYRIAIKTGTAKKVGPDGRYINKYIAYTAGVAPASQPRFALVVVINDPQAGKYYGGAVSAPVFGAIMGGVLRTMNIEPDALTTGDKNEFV

As for `Nc1nc(C(=O)NC(C(=O)N[C@H]2Cc3cccc(C(=O)O)c3OB2O)c2csc(N)n2)cs1` (stereo partly drawn) [Example 17, (3R)-3-(2-(2-aminothiazol-4-yl)-2-(2-aminothiazole-4-carboxamido)acetamido)-2-hydroxy-3,4-dihydro-2H-benzo[e][1,2]oxaborinine-8-carboxylic acid], the values for the EC50 in assay [1] and in assay [2] were 30 to 500 µM and greater than 100 µM, respectively. Also, the MIC in the assay with S. aureus ATCC 29213 was less than 64 µg/mL; in assay [3], less than 64 µg/mL; with E. coli DH5α/pLBII, 32 to 64 µg/mL; in assay [4] it was 32 to 64 µg/mL.

In the case of `CCN1CCN(C(=O)N[C@@H](C(=O)N[C@H]2Cc3cccc(C(=O)O)c3OB2O)[C@H](C)O)C(=O)C1=O` [Example 47, (R)-3-((2R,3S)-2-(4-Ethyl-2,3-dioxopiperazine-1-carboxamido)-3-hydroxy-butanamido)-2-hydroxy-3,4-dihydro-2H-benzo[e][1,2]oxaborinine-8-carboxylic acid], the figures for the EC50 in assay [1] and in assay [2] were greater than 500 µM and less than 10 µM, respectively. The MIC with S. aureus ATCC 29213 is greater than 128 µg/mL; in assay [3], less than 64 µg/mL; with E. coli DH5α/pLBII it was 8 to 16 µg/mL; in assay [4], 8 to 16 µg/mL.

In the case of `CCN1CCN(CC(=O)NC(C(=O)N[C@H]2Cc3cccc(C(=O)O)c3OB2O)c2csc(N)n2)C(=O)C1=O` (stereo partly drawn) [Example 45, (3R)-3-(2-(2-aminothiazol-4-yl)-2-(2-(4-ethyl-2,3-dioxopiperazin-1-yl)acetamido)acetamido)-2-hydroxy-3,4-dihydro-2H-benzo[e][1,2]oxaborinine-8-carboxylic acid], the EC50 is 30 to 500 µM in assay [1] and less than 10 µM in assay [2]. In addition, the MIC in the assay with S. aureus ATCC 29213 was greater than 128 µg/mL; in assay [3], less than 64 µg/mL; in the assay on E. coli DH5α/pLBII it was 32 to 64 µg/mL; in assay [4] it was 32 to 64 µg/mL.

Molecule `CC(C)N1CCN(C(=O)NC(C(=O)N[C@H]2Cc3cccc(C(=O)O)c3OB2O)c2csc(N)n2)C(=O)C1=O` (stereo partly drawn) [Example 55, (3R)-3-(2-(2-aminothiazol-4-yl)-2-(4-isopropyl-2,3-dioxopiperazine-1-carboxamido)acetamido)-2-hydroxy-3,4-dihydro-2H-benzo[e][1,2]oxaborinine-8-carboxylic acid] showed an EC50 in assay [1] of 30 to 500 µM. Besides, the MIC in the assay with S. aureus ATCC 29213 is 64 to 128 µg/mL; in assay [3] it was less than 64 µg/mL; in the assay with E. coli DH5α/pLBII it was 8 to 16 µg/mL; in assay [4] it was 8 to 16 µg/mL.

The molecule `COCCN1CCN(C(=O)NC(C(=O)N[C@H]2Cc3cccc(C(=O)O)c3OB2O)c2csc(N)n2)C(=O)C1=O` (stereo partly drawn) [Example 61, (3R)-3-(2-(2-aminothiazol-4-yl)-2-(4-(2-methoxyethyl)-2,3-dioxopiperazine-1-carboxamido)acetamido)-2-hydroxy-3,4-dihydro-2H-benzo[e][1,2]oxaborinine-8-carboxylic acid] yielded an EC50 in assay [1] of less than 30 µM. In addition, the MIC with S. aureus ATCC 29213 was 64 to 128 µg/mL; in assay [3], less than 64 µg/mL; in the assay on E. coli DH5α/pLBII it was 32 to 64 µg/mL; in assay [4], 32 to 64 µg/mL.

With `Nc1nc(C(NC(=O)N2CCN(Cc3ccccc3)C(=O)C2=O)C(=O)N[C@H]2Cc3cccc(C(=O)O)c3OB2O)cs1` (stereo partly drawn) [Example 49, (3R)-3-(2-(2-aminothiazol-4-yl)-2-(4-benzyl-2,3-dioxopiperazine-1-carboxamido)acetamido)-2-hydroxy-3,4-dihydro-2H-benzo[e][1,2]oxaborinine-8-carboxylic acid], the EC50 in assay [1] is less than 30 µM. Moreover, the MIC in the assay with S. aureus ATCC 29213 is 64 to 128 µg/mL; in assay [3], less than 64 µg/mL; in the assay on E. coli DH5α/pLBII, 128 to 256 µg/mL; in assay [4] it was 128 to 256 µg/mL.

For the molecule `NCCN1CCN(C(=O)NC(C(=O)N[C@H]2Cc3cccc(C(=O)O)c3OB2O)c2csc(N)n2)C(=O)C1=O` (stereo partly drawn) [Example 58, (3R)-3-(2-(4-(2-aminoethyl)-2,3-dioxopiperazine-1-carboxamido)-2-(2-aminothiazol-4-yl)acetamido)-2-hydroxy-3,4-dihydro-2H-benzo[e][1,2]oxaborinine-8-carboxylic acid], the EC50 in assay [1] was 30 to 500 µM. Besides, the MIC with S. aureus ATCC 29213 is greater than 128 µg/mL; in assay [3], less than 64 µg/mL; with E. coli DH5α/pLBII it was 32 to 64 µg/mL; in assay [4], 32 to 64 µg/mL.

Take `Nc1nc(C(NC(=O)N2CCN(O)C(=O)C2=O)C(=O)N[C@H]2Cc3cccc(C(=O)O)c3OB2O)cs1` (stereo partly drawn) [Example 72, (3R)-3-(2-(2-aminothiazol-4-yl)-2-(4-hydroxy-2,3-dioxopiperazine-1-carboxamido)acetamido)-2-hydroxy-3,4-dihydro-2H-benzo[e][1,2]oxaborinine-8-carboxylic acid]: in assay [1], the EC50 fell in the range of 30 to 500 µM. The MIC was 64 to 128 µg/mL in the assay on S. aureus ATCC 29213, less than 64 µg/mL in assay [3], 128 to 256 µg/mL in the assay with E. coli DH5α/pLBII and 128 to 256 µg/mL in assay [4].

For `CCN1CCN(C(=O)N[C@@H](C(=O)N[C@H]2Cc3cccc(C(=O)O)c3OB2O)C(C)(C)C)C(=O)C1=O` [Example 85, (R)-3-((R)-2-(4-ethyl-2,3-dioxopiperazine-1-carboxamido)-3,3-dimethylbutanamido)-2-hydroxy-3,4-dihydro-2H-benzo[e][1,2]oxaborinine-8-carboxylic acid], the figures for the EC50 in assay [1] and in assay [2] were less than 30 µM and less than 10 µM, respectively. The MIC in the assay with S. aureus ATCC 29213 was greater than 128 µg/mL; in assay [3] it was less than 64 µg/mL; in assay [4], 128 to 256 µg/mL.

On to `CCN1CCN(C(=O)N[C@H](CCC(N)=O)C(=O)N[C@H]2Cc3cccc(C(=O)O)c3OB2O)C(=O)C1=O` [Example 50, (R)-3-((R)-5-amino-2-(4-ethyl-2,3-dioxopiperazine-1-carboxamido)-5-oxopentanamide)-2-hydroxy-3,4-dihydro-2H-benzo[e][1,2]oxaborinine-8-carboxylic acid], for which the EC50 in assay [1] was greater than 500 µM. The MIC in the assay on S. aureus ATCC 29213 is greater than 128 µg/mL; in assay [3], less than 64 µg/mL; in the assay with E. coli DH5α/pLBII it was 32 to 64 µg/mL; in assay [4], 32 to 64 µg/mL.

The molecule `CCCCN1CCN(C(=O)NC(C(=O)N[C@H]2Cc3cccc(C(=O)O)c3OB2O)c2csc(N)n2)C(=O)C1=O` (stereo partly drawn) [Example 53, (3R)-3-(2-(2-aminothiazol-4-yl)-2-(4-butyl-2,3-dioxopiperazine-1-carboxamido)acetamido)-2-hydroxy-3,4-dihydro-2H-benzo[e][1,2]oxaborinine-8-carboxylic acid] registered an EC50 in assay [1] of less than 30 µM. Also, the MIC was 64 to 128 µg/mL in the assay on S. aureus ATCC 29213, less than 64 µg/mL in assay [3], 32 to 64 µg/mL with E. coli DH5α/pLBII and 32 to 64 µg/mL in assay [4].
